ChEMBL document CHEMBL1208702, “Use of 2-[(18)F]fluoroethylazide for the Staudinger ligation - Preparation and characterisation of GABA(A) receptor binding 4-quinolones” (Bioorg Med Chem Lett, 2010)

What was measured:
[1] = Biodistribution in iv dosed Sprague-Dawley rats fat after 60 mins by gamma counter; assay type: ADME, organism-based, Adipose tissue; conditions: rat, in vivo, 1 h
Lung [2] = experiment: Biodistribution in iv dosed Sprague-Dawley rats lung after 10 mins by gamma counter; assay type: ADME, organism-based; conditions: rat, in vivo
Blood [3] = experiment: Biodistribution in iv dosed Sprague-Dawley rats blood after 10 mins by gamma counter; assay type: ADME, organism-based; conditions: rat, in vivo
Brain [4] = experiment: Biodistribution in iv dosed Sprague-Dawley rats brain after 0.5 min by gamma counter; assay type: ADME, organism-based; conditions: rat, in vivo
Lung [5] = experiment: Biodistribution in iv dosed Sprague-Dawley rats lung after 30 mins by gamma counter; assay type: ADME, organism-based; conditions: rat, in vivo, 0.5 h
Brain [6] = experiment: Biodistribution in iv dosed Sprague-Dawley rats brain after 2 mins by gamma counter; assay type: ADME, organism-based; conditions: rat, in vivo
[7] = Biodistribution in iv dosed Sprague-Dawley rats stomach after 30 mins by gamma counter; assay type: ADME, organism-based; conditions: rat, in vivo, 0.5 h
Heart [8] = experiment: Biodistribution in iv dosed Sprague-Dawley rats heart after 2 mins by gamma counter; assay type: ADME, organism-based; conditions: rat, in vivo
Kidney [9] = experiment: Biodistribution in iv dosed Sprague-Dawley rats kidneys after 30 mins by gamma counter; assay type: ADME, organism-based; conditions: rat, in vivo, 0.5 h
[10] = Biodistribution in iv dosed Sprague-Dawley rats small intestine after 30 mins by gamma counter; assay type: ADME, organism-based; conditions: rat, in vivo, 0.5 h
[11] = Biodistribution in iv dosed Sprague-Dawley rats stomach after 60 mins by gamma counter; assay type: ADME, organism-based; conditions: rat, in vivo, 1 h
Heart [12] = experiment: Biodistribution in iv dosed Sprague-Dawley rats heart after 10 mins by gamma counter; assay type: ADME, organism-based; conditions: rat, in vivo
Blood [13] = experiment: Biodistribution in iv dosed Sprague-Dawley rats blood after 30 mins by gamma counter; assay type: ADME, organism-based; conditions: rat, in vivo, 0.5 h
[14] = Biodistribution in iv dosed Sprague-Dawley rats fat after 30 mins by gamma counter; assay type: ADME, organism-based, Adipose tissue; conditions: rat, in vivo, 0.5 h
Brain [15] = experiment: Biodistribution in iv dosed Sprague-Dawley rats brain after 10 mins by gamma counter; assay type: ADME, organism-based; conditions: rat, in vivo
Bone [16] = experiment: Biodistribution in iv dosed Sprague-Dawley rats bone after 0.5 min by gamma counter; assay type: ADME, organism-based, Bone element; conditions: rat, in vivo
Liver = experiment: Biodistribution in iv dosed Sprague-Dawley rats liver after 10 mins by gamma counter; assay type: ADME, organism-based; conditions: rat, in vivo
[17] = Biodistribution in iv dosed Sprague-Dawley rats fat after 10 mins by gamma counter; assay type: ADME, organism-based, Adipose tissue; conditions: rat, in vivo
Bone [18] = experiment: Biodistribution in iv dosed Sprague-Dawley rats bone after 30 mins by gamma counter; assay type: ADME, organism-based, Bone element; conditions: rat, in vivo, 0.5 h
Heart [19] = experiment: Biodistribution in iv dosed Sprague-Dawley rats heart after 30 mins by gamma counter; assay type: ADME, organism-based; conditions: rat, in vivo, 0.5 h
Muscle tissue [20] = experiment: Biodistribution in iv dosed Sprague-Dawley rats muscle after 60 mins by gamma counter; assay type: ADME, organism-based; conditions: rat, in vivo, 1 h
[21] = Biodistribution in iv dosed Sprague-Dawley rats bladder and urine after 0.5 min by gamma counter; assay type: ADME, organism-based; conditions: rat, in vivo
[22] = Drug uptake in Wistar rat brain thalamus/striatum cortex at 0.1 MBq/ml after 60 mins by autoradiographic analysis; assay type: ADME, tissue-based; conditions: in vivo, 1 h
Brain [23] = experiment: Biodistribution in iv dosed Sprague-Dawley rats brain after 60 mins by gamma counter; assay type: ADME, organism-based; conditions: rat, in vivo, 1 h
[24] = Biodistribution in iv dosed Sprague-Dawley rats bladder and urine after 60 mins by gamma counter; assay type: ADME, organism-based; conditions: rat, in vivo, 1 h
[25] = Drug uptake in low GABAA expression areas of Wistar rat brain thalamus/striatum cortex at 0.1 MBq/ml after 60 mins by autoradiographic analysis; assay type: ADME, tissue-based; conditions: in vivo, 1 h
Kidney [26] = experiment: Biodistribution in iv dosed Sprague-Dawley rats kidneys after 60 mins by gamma counter; assay type: ADME, organism-based; conditions: rat, in vivo, 1 h
Lung [27] = experiment: Biodistribution in iv dosed Sprague-Dawley rats lung after 2 mins by gamma counter; assay type: ADME, organism-based; conditions: rat, in vivo
[28] = Biodistribution in iv dosed Sprague-Dawley rats small intestine after 60 mins by gamma counter; assay type: ADME, organism-based; conditions: rat, in vivo, 1 h
Bone [29] = experiment: Biodistribution in iv dosed Sprague-Dawley rats bone after 60 mins by gamma counter; assay type: ADME, organism-based, Bone element; conditions: rat, in vivo, 1 h
Muscle tissue [30] = experiment: Biodistribution in iv dosed Sprague-Dawley rats muscle after 2 mins by gamma counter; assay type: ADME, organism-based; conditions: rat, in vivo
Bone [31] = experiment: Biodistribution in iv dosed Sprague-Dawley rats bone after 2 mins by gamma counter; assay type: ADME, organism-based, Bone element; conditions: rat, in vivo
Spleen = experiment: Biodistribution in iv dosed Sprague-Dawley rats spleen after 2 mins by gamma counter; assay type: ADME, organism-based; conditions: rat, in vivo
Brain [32] = experiment: Biodistribution in iv dosed Sprague-Dawley rats brain after 30 mins by gamma counter; assay type: ADME, organism-based; conditions: rat, in vivo, 0.5 h
[33] = Biodistribution in iv dosed Sprague-Dawley rats small intestine after 2 mins by gamma counter; assay type: ADME, organism-based; conditions: rat, in vivo
Blood [34] = experiment: Biodistribution in iv dosed Sprague-Dawley rats blood after 2 mins by gamma counter; assay type: ADME, organism-based; conditions: rat, in vivo
Kidney [35] = experiment: Biodistribution in iv dosed Sprague-Dawley rats kidneys after 2 mins by gamma counter; assay type: ADME, organism-based; conditions: rat, in vivo
[36] = Biodistribution in iv dosed Sprague-Dawley rats bladder and urine after 2 mins by gamma counter; assay type: ADME, organism-based; conditions: rat, in vivo

O=C(NCC[18F])c1c[nH]c2ccc(Cc3ccccc3)cc2c1=O
Drug uptake [1]: 0.3 %ID
Drug uptake (Lung [2]): 0.6 %ID
Drug uptake (Blood [3]): 2.8 %ID
Drug uptake (Brain [4]): 0.1 %ID
Drug uptake (Lung [5]): 0.4 %ID
Drug uptake (Brain [6]): 0.1 %ID
Drug uptake [7]: 0.5 %ID
Drug uptake (Heart [8]): 1.1 %ID
Drug uptake (Kidney [9]): 1.5 %ID
Drug uptake [10]: 50.3 %ID
Drug uptake [11]: 0.2 %ID
Drug uptake (Heart [12]): 0.3 %ID
Drug uptake (Blood [13]): 1.5 %ID
Drug uptake [14]: 1.7 %ID
Drug uptake (Brain [15]): 0.1 %ID
Drug uptake (Bone [16]): 3 %ID
Drug uptake (Liver): 33.7 %ID
Drug uptake [17]: 1.8 %ID
Drug uptake (Bone [18]): 1.5 %ID
Drug uptake (Heart [19]): 0.2 %ID
Drug uptake (Muscle tissue [20]): 4.6 %ID
Drug uptake [21]: 0.2 %ID
Drug uptake [22]: 60%
Drug uptake (Brain [23]): 0 %ID
Drug uptake [24]: 7.3 %ID
Drug uptake [25]: 76%
Drug uptake (Kidney [26]): 0.5 %ID
Drug uptake (Lung [27]): 1.5 %ID
Drug uptake [28]: 74.5 %ID
Drug uptake (Bone [29]): 1.4 %ID
Drug uptake (Muscle tissue [30]): 47.3 %ID
Drug uptake (Bone [31]): 3 %ID
Drug uptake (Spleen): 0.3 %ID
Drug uptake (Brain [32]): 0.1 %ID
Drug uptake [33]: 7 %ID
Drug uptake (Blood [34]): 4.2 %ID
Drug uptake (Kidney [35]): 3.6 %ID
Drug uptake [36]: 0 %ID
